Like-named read-outs stand apart in the source and are kept apart here.
System: Aedes aegypti
Assay: Warm Body assay, mosquito landings on treated warm body
Format: in vivo
Details: for pest or weed control at 3.2 µg/mL / pest or weed control at 7.1 µg/mL / pest or weed control at 16 µg/mL / pest or weed control at 35.7 µg/mL / pest or weed control at 53 µg/mL / pest or weed control at 80 µg/mL / pest or weed control at 119 µg/mL / pest or weed control at 178 µg/mL / pest or weed control at 267 µg/mL / pest or weed control at 400 µg/mL / pest or weed control at 598 µg/mL / pest or weed control at 890 µg/mL / pest or weed control at 2000 µg/mL / pest or weed control at 4470 µg/mL / pest or weed control at 10000 µg/mL / pest or weed control at 1 % / pest or weed control at 0.0016 % / pest or weed control at 0.04 %: Aedes aegypti; for pest or weed control at 3.2 µg/mL / pest or weed control at 7.1 µg/mL / pest or weed control at 16 µg/mL / pest or weed control at 35.7 µg/mL / pest or weed control at 53 µg/mL / pest or weed control at 80 µg/mL / pest or weed control at 119 µg/mL / pest or weed control at 178 µg/mL / pest or weed control at 267 µg/mL / pest or weed control at 400 µg/mL / pest or weed control at 598 µg/mL / pest or weed control at 890 µg/mL / pest or weed control at 2000 µg/mL / pest or weed control at 4470 µg/mL / pest or weed control at 10000 µg/mL: read-out: Percentage of repellence of mosquitoes Aedes aegypti landing on the warm body; for pest or weed control at 7.1 µg/mL: 0.0071 mg/mL (Table 1); for pest or weed control at 53 µg/mL: 0.053 mg/mL (Table 1); for pest or weed control at 119 µg/mL: 0.119 mg/mL (Table 1); for pest or weed control at 267 µg/mL: 0.267 mg/mL (Table 1); for pest or weed control at 598 µg/mL: 0.598 mg/mL (Table 1); for pest or weed control at 4470 µg/mL: 4.47 mg/mL (Table 1); for pest or weed control at 1 % / mosquito landing within the two minutes of experiments: highest tested concentration, 1% (Table 3); for pest or weed control at 1 % / pest or weed control at 0.04 %: read-out: repellence; for pest or weed control at 0.0016 %: read-out: reduce the number of mosquito landings; for pest or weed control at 0.04 %: intermediate concentration of 0.04% (Table 3)
Procedure: The arthropod controlling effect according to the present invention is determined on mosquitoes using an adapted Warm Body assay as defined in Kröber T, Kessler S, Frei J, Bourquin M, Guerin PM. An in vitro assay for testing mosquito controlling compounds employing a warm body and carbon dioxide as a behavioral activator. J Am Mosq Control Assoc. 2010; 26: 381-386. Further information is provided in the accompanying examples
The controlling effect, repellence & spatial repellence, according to the present invention is determined by testing the Warm Body assay against the yellow fever mosquito, Aedes aegypti Rockefeller strain. […] Observations of controlling efficacy were made on host-seeking females of uniform age, 5 to 10 days old selected as mentioned in the publication mentioned hereinabove. Tested hungry females had access to 10% sugar solution but were not blood-fed. Further information is provided in the accompanying examples.
The published protocol has been adapted in not manually counting the landing mosquitoes but automatically using an automatic counting software, the switch from Anopheles gambiae to A. aegypti led to a decrease of mosquitoes' number placed in the tested cage due to the size difference (i.e. 30 mosquitoes instead of 50) and to an increase of lighting as A. aegypti is a diurnal mosquitoes (i.e. 150 lux instead of 4 lux). Further information is provided in the accompanying examples. […]
The controlling effect according to the present invention was assessed using an adapted Warm Body assay as defined in Kröber T, Kessler S, Frei J, Bourquin M, Guerin P M. 2010. J Am Mosq Control Assoc. 26: 381-386. In this in-vitro assay the number of mosquito landing on a warm body, simulating an attractive host treated with the tested stimuli, was measured in order to assess the repellence effect.
The published protocol has been adapted as the switch from Anopheles gambiae to Aedes aegypti led to a decrease of mosquitoes placed in the tested cage due to the size difference (i.e. 30 mosquitoes instead of 50) and to an increase of lighting since A. aegypti is a diurnal mosquitoes (i.e. 150 lux instead of 4 lux).
On the sandblasted glass Petri dish covering the warm body (28.3 cm^2), 100 μL of the compounds diluted at different concentrations in ethanol was applied. The number of mosquito landing on the warm body was counted for each stimulus and pure ethanol (solvent) as control.

[1] = lowest concentration of 0.0016% (Table 3)

CCCc1ccc2c(c1)OCC(=O)CO2 [compound 465, 7-propyl-1,5-benzoodioxepin-3-one]
Percentage of repellence of mosquitoes Aedes aegypti landing on the warm body (0.016 mg/mL (Table 3)): 4%
Percentage of repellence of mosquitoes Aedes aegypti landing on the warm body (0.4 mg/mL (Table 3)): 36%
Percentage of repellence of mosquitoes Aedes aegypti landing on the warm body (10 mg/mL (Table 3)): 87%

CC=Cc1cc(OC)c(OC)c(OC)c1 [compound 1123, 1,2,3-trimethoxy-5-[1-propen-1-yl]benzene]
pest or weed control at 3.2 µg/mL (0.0032 mg/mL (Table 1)): 28%
pest or weed control at 7.1 µg/mL: 10%
pest or weed control at 16 µg/mL (0.016 mg/mL (Table 1)): 63%
pest or weed control at 35.7 µg/mL (0.0357 mg/mL (Table 1)): 45%
pest or weed control at 53 µg/mL: 81%
pest or weed control at 80 µg/mL (0.08 mg/mL (Table 1)): 67%
pest or weed control at 119 µg/mL: 71%
pest or weed control at 178 µg/mL (0.178 mg/mL (Table 1)): 83%
pest or weed control at 267 µg/mL: 90%
pest or weed control at 400 µg/mL (0.4 mg/mL (Table 1)): 91%
pest or weed control at 598 µg/mL: 95%
pest or weed control at 890 µg/mL (0.89 mg/mL (Table 1)): 90%
pest or weed control at 2000 µg/mL (2 mg/mL (Table 1)): 98%
pest or weed control at 4470 µg/mL: 100%
pest or weed control at 10000 µg/mL (10 mg/mL (Table 1)): 98%

CC=Cc1cc(OC)c(O)c(OC)c1 [compound 1124, 2,6-dimethoxy-4-[prop-1-enyl]phenol]
pest or weed control at 3.2 µg/mL (0.0032 mg/mL (Table 1)): 26%
pest or weed control at 7.1 µg/mL: 40%
pest or weed control at 16 µg/mL (0.016 mg/mL (Table 1)): 62%
pest or weed control at 35.7 µg/mL (0.0357 mg/mL (Table 1)): 0%
pest or weed control at 53 µg/mL: 48%
pest or weed control at 80 µg/mL (0.08 mg/mL (Table 1)): 84%
pest or weed control at 119 µg/mL: 35%
pest or weed control at 178 µg/mL (0.178 mg/mL (Table 1)): 66%
pest or weed control at 267 µg/mL: 59%
pest or weed control at 400 µg/mL (0.4 mg/mL (Table 1)): 78%
pest or weed control at 598 µg/mL: 69%
pest or weed control at 890 µg/mL (0.89 mg/mL (Table 1)): 78%
pest or weed control at 2000 µg/mL (2 mg/mL (Table 1)): 95%
pest or weed control at 4470 µg/mL: 85%
pest or weed control at 10000 µg/mL (10 mg/mL (Table 1)): 98%

CC=Cc1cc(OC)c(OC)c(OC)c1 [compound 1126, 1,2,3-trimethoxy-5-prop-1-enylbenzene]
pest or weed control at 16 µg/mL (0.016 mg/mL (Table 3)): 31%
pest or weed control at 400 µg/mL (0.4 mg/mL (Table 3)): 71%
pest or weed control at 10000 µg/mL (10 mg/mL (Table 3)): 90%
pest or weed control at 1 %: > 90%

CC=Cc1cc(OC)c(O)c(OC)c1 [compound 1127, 2,6-dimethoxy-4-prop-1-enylphenol]
pest or weed control at 3.2 µg/mL (0.0032 mg/mL (Table 2)): 17%
pest or weed control at 16 µg/mL (0.016 mg/mL (Table 2)): 1%
pest or weed control at 35.7 µg/mL (0.0357 mg/mL (Table 2)): 0%
pest or weed control at 80 µg/mL (0.08 mg/mL (Table 2)): 0%
pest or weed control at 178 µg/mL (0.178 mg/mL (Table 2)): 30%
pest or weed control at 400 µg/mL (0.4 mg/mL (Table 2)): 42%
pest or weed control at 890 µg/mL (0.89 mg/mL (Table 2)): 59%
pest or weed control at 2000 µg/mL (2 mg/mL (Table 2)): 100%
pest or weed control at 10000 µg/mL (10 mg/mL (Table 2)): 96%

CC=Cc1cc(OC)ccc1OC [compound 1196, 1,4-dimethoxy-2-[1-propen-1-yl]benzene]
pest or weed control at 16 µg/mL: 57%
pest or weed control at 400 µg/mL: 74%
pest or weed control at 10000 µg/mL: 86%
pest or weed control at 0.0016 %: > 50%

COc1ccc(O)c(OC)c1OC [compound 1204, 2,3,4-trimethoxyphenol]
pest or weed control at 16 µg/mL (0.016 mg/mL (Table 3)): 46%
pest or weed control at 400 µg/mL (0.4 mg/mL (Table 3)): 83%
pest or weed control at 10000 µg/mL (10 mg/mL (Table 3)): 92%
pest or weed control at 1 %: > 90%
pest or weed control at 0.04 %: > 75%

CCOc1cc(C)ccc1O [compound 1303, 2-ethoxy-4-methylphenol]
pest or weed control at 16 µg/mL (0.016 mg/mL (Table 3)): 16%
pest or weed control at 400 µg/mL (0.4 mg/mL (Table 3)): 21%
pest or weed control at 10000 µg/mL (10 mg/mL (Table 3)): 100%
pest or weed control at 1 %: > 90%
mosquito landing within the two minutes of experiments: protect the attractive stimulus for any mosquito landing

COc1cc(CC=O)ccc1O [compound 1467, 2-(4-hydroxy-3-methoxyphenyl)acetaldehyde]
pest or weed control at 16 µg/mL (0.016 mg/mL (Table 3)): 29%
pest or weed control at 400 µg/mL (0.4 mg/mL (Table 3)): 84%
pest or weed control at 10000 µg/mL (10 mg/mL (Table 3)): 79%
pest or weed control at 0.04 %: > 75%

CCOc1cc(C=O)ccc1OC(=O)C(C)C [compound 1469, (2-ethoxy-4-formylphenyl) 2-methylpropanoate]
pest or weed control at 16 µg/mL (0.016 mg/mL (Table 3)): 64%
pest or weed control at 400 µg/mL (0.4 mg/mL (Table 3)): 65%
pest or weed control at 10000 µg/mL (10 mg/mL (Table 3)): 95%
pest or weed control at 1 %: > 90%
pest or weed control at 0.0016 % [1]: > 50%

COc1cc(C2CC=C(C)CO2)ccc1O (centres unmarked) [compound 1478, 2-methoxy-4-(5-methyl-3,6-dihydro-2H-pyran-2-yl)phenol]
pest or weed control at 16 µg/mL (0.016 mg/mL (Table 3)): 0%
pest or weed control at 400 µg/mL (0.4 mg/mL (Table 3)): 76%
pest or weed control at 10000 µg/mL (10 mg/mL (Table 3)): 73%
pest or weed control at 0.04 %: > 75%

COc1cc(C(C)OC)ccc1O (centres unmarked) [compound 1480, 2-methoxy-4-(1-methoxyethyl)phenol]
pest or weed control at 16 µg/mL (0.016 mg/mL (Table 3)): 66%
pest or weed control at 400 µg/mL (0.4 mg/mL (Table 3)): 61%
pest or weed control at 10000 µg/mL (10 mg/mL (Table 3)): 100%
pest or weed control at 1 %: > 90%
pest or weed control at 0.0016 % [1]: > 50%
mosquito landing within the two minutes of experiments: protect the attractive stimulus for any mosquito landing

COc1cc(C2CCCO2)ccc1O (centres unmarked) [compound 1481, 2-methoxy-4-(oxolan-2-yl)phenol]
pest or weed control at 16 µg/mL (0.016 mg/mL (Table 3)): 21%
pest or weed control at 400 µg/mL (0.4 mg/mL (Table 3)): 89%
pest or weed control at 10000 µg/mL (10 mg/mL (Table 3)): 97%
pest or weed control at 1 %: > 90%
pest or weed control at 0.04 %: > 75%

CCCc1cc(OC)c(O)c(OC)c1 [compound 1502, 2,6-dimethoxy-4-propylphenol]
pest or weed control at 3.2 µg/mL (0.0032 mg/mL (Table 1)): 0%
pest or weed control at 7.1 µg/mL: 0%
pest or weed control at 16 µg/mL (0.016 mg/mL (Table 1)): 32%
pest or weed control at 35.7 µg/mL (0.0357 mg/mL (Table 1)): 0%
pest or weed control at 53 µg/mL: 61%
pest or weed control at 80 µg/mL (0.08 mg/mL (Table 1)): 0%
pest or weed control at 119 µg/mL: 14%
pest or weed control at 178 µg/mL (0.178 mg/mL (Table 1)): 94%
pest or weed control at 267 µg/mL: 94%
pest or weed control at 400 µg/mL (0.4 mg/mL (Table 1)): 88%
pest or weed control at 598 µg/mL: 94%
pest or weed control at 890 µg/mL (0.89 mg/mL (Table 1)): 99%
pest or weed control at 2000 µg/mL (2 mg/mL (Table 1)): 96%
pest or weed control at 4470 µg/mL: 100%
pest or weed control at 10000 µg/mL (10 mg/mL (Table 1)): 96%

C=CC(C)CCCC(C)(C)OCC=Cc1ccc(O)c(OC)c1 (centres unmarked) [compound 1519, 4-{3-[(2,6-dimethyl-7-octen-2-yl)oxy]-1-propen-1-yl}-2-methoxyphenol]
pest or weed control at 16 µg/mL (0.016 mg/mL (Table 3)): 67%
pest or weed control at 400 µg/mL (0.4 mg/mL (Table 3)): 71%
pest or weed control at 10000 µg/mL (10 mg/mL (Table 3)): 95%
pest or weed control at 1 %: > 90%
pest or weed control at 0.0016 % [1]: > 50%

COc1cc(C=CC=O)ccc1O [compound 1527, 3-(4-hydroxy-3-methoxyphenyl)pro-2-enal]
Percentage of repellence of mosquitoes Aedes aegypti landing on the warm body (0.016 mg/mL (Table 3)): 69%
Percentage of repellence of mosquitoes Aedes aegypti landing on the warm body (0.4 mg/mL (Table 3)): 76%
Percentage of repellence of mosquitoes Aedes aegypti landing on the warm body (10 mg/mL (Table 3)): 71%

Source: patent US20250113823A1, “Arthropod Control Compositions” (priority 2022, published 2025)
